Experimental data reported in patent US20140066488A1, “Inhibitors of Memapsin 2 Cleavage for the Treatment of Alzheimer's Disease” (Purdue Research Foundation, priority 2012, published 2014).
Read-outs that look alike come from different tables or passages of the source.

Columns and labels:
recombinant BACE 2 = target: T1, recombinant BACE 2 (Homo sapiens, UniProt Q9Y5Z0); assay: enzyme inhibition of recombinant BACE 2; assay type: biochemical; settings: for selectivity BACE 2/BACE 1: ratio of Ki values; for Ki: recombinant BACE 2
T1 sequence (Q9Y5Z0 63-518): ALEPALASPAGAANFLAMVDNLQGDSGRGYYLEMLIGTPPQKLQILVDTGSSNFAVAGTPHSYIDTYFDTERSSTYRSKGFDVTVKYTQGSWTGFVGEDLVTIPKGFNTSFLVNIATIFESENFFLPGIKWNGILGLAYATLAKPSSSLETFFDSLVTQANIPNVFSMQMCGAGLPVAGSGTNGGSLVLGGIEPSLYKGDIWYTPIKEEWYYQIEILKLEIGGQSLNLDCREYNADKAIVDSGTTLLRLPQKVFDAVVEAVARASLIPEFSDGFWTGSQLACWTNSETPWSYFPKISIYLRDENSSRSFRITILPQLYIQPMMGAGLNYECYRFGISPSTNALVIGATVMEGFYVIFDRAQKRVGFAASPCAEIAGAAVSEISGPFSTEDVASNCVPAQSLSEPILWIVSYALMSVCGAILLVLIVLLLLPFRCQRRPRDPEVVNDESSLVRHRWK

[1] = target: recombinant β-secretase (BACE 1, memapsin 2) (Homo sapiens, UniProt P56817); assay: BACE 1 enzyme inhibitory assay against recombinant β-secretase
recombinant β-secretase (BACE 1, memapsin 2), sequence (P56817 46-501): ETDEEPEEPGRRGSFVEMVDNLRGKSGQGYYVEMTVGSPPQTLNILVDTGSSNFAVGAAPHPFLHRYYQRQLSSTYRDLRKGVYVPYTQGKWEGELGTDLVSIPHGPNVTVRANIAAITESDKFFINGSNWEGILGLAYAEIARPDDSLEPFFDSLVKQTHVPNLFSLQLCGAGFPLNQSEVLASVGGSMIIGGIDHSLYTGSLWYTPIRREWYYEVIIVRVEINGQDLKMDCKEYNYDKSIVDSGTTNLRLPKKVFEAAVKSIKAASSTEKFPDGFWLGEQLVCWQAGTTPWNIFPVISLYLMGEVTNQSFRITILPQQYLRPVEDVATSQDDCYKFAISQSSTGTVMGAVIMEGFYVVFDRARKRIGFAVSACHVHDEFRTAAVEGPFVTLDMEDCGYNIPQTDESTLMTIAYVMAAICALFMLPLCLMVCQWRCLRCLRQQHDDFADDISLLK
Description: The BACE 1 inhibitory activity of synthetic inhibitors 4-9 was determined against recombinant β-secretase using previously reported assay protocols (Ermolieff et al., 2000).

human CD (cathepsin D) = human CD (cathepsin D) (Homo sapiens, UniProt P07339); assay: enzyme inhibition of human cathepsin D (CD); assay type: biochemical; settings: for Ki: human CD; for selectivity CD/BACE 1: ratio of Ki values; for selectivity against CD: BACE 1 over CD
human CD (cathepsin D), sequence (P07339 65-412): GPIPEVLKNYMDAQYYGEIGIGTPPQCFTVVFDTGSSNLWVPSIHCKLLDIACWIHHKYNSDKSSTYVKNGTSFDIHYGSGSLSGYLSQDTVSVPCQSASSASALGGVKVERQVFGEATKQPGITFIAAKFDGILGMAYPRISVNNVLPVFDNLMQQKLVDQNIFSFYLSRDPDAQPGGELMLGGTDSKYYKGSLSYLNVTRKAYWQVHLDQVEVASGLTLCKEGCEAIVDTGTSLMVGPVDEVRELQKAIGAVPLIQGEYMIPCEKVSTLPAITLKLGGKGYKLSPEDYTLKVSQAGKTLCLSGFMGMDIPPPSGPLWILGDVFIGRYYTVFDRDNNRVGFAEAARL

[2] = target: β-secretase in neuroblastoma cells (Homo sapiens, UniProt P56817)
β-secretase in neuroblastoma cells, sequence (P56817 46-501): as the sequence (P56817 46-501) above
Excerpt: The inventors have also evaluated the cellular inhibition of β-secretase in neuroblastoma cells.

[3] = read-out: Ki (nM) BACE 1, recombinant β-secretase
[4] = read-out: IC50 (nM), cellular, determined in neuroblastoma cells

Compound	Ki [1, 3]	selectivity against CD (in words) (human CD (cathepsin D))	Ki (human CD (cathepsin D))	selectivity CD/BACE 1 (human CD (cathepsin D))	IC50 [2, 4]	BACE 1 inhibitory activity (in words) ([1]; recombinant β-secretase)	further results
CC[C@H](NC[C@H](Cc1ccccc1)NC(=O)c1cc(C(=O)N[C@H](C)c2ccccc2)cc(N(C)S(C)(=O)=O)c1)C(=O)NCC(C)C [Inhibitor 4]	27 nM	marginal selectivity	8260 nM	>300	9.5 nM		selectivity against BACE 2 (in words) (recombinant BACE 2): marginal selectivity; selectivity against BACE 2 (recombinant BACE 2; BACE 1 over BACE 2): > 50 fold; selectivity BACE 2/BACE 1 (recombinant BACE 2): >55; Ki (recombinant BACE 2): 1450 nM
CC(C)CN(C)C(=O)[C@@H](NC[C@H](Cc1ccccc1)NC(=O)c1cc(C(=O)N[C@H](C)c2ccccc2)cc(N(C)S(C)(=O)=O)c1)[C@H](C)O [Inhibitor 7]						abolished all BACE 1 inhibitory activity	Ki [1]: > 1000 nM
CO[C@@H](C)[C@H](NC[C@H](Cc1ccccc1)NC(=O)c1cc(C(=O)N[C@H](C)c2ccccc2)cc(N(C)S(C)(=O)=O)c1)C(=O)NCC(C)C [Inhibitor 8]	25 nM					substantial reduction in inhibitory potency	
CC(C)CNC[C@@H](NC[C@H](Cc1ccccc1)NC(=O)c1cc(C(=O)N[C@H](C)c2ccccc2)cc(N(C)S(C)(=O)=O)c1)[C@H](C)O [Inhibitor 9]						total loss in potency	
CCC[C@H](O)[C@H](NC[C@H](Cc1ccccc1)NC(=O)c1cc2c3c(c1)c(CC)cn3CC(C)(C)S(=O)(=O)N2C)C(=O)NCC(C)C [Inhibitor 20]	0.036 nM	excellent selectivity	530 nM	>14700	15 nM		selectivity against BACE 2 (in words) (recombinant BACE 2): good selectivity; selectivity BACE 2/BACE 1 (recombinant BACE 2): >300; Ki (recombinant BACE 2): 11 nM; potency enhancement ([1]; BACE 1 Ki, over unsubstituted inhibitor 19): > 10 fold

Second part, led by results:

Ki [1, 3]	selectivity against CD (in words) (human CD (cathepsin D))	Ki (human CD (cathepsin D))	selectivity CD/BACE 1 (human CD (cathepsin D))	IC50 [2, 4]	BACE 1 inhibitory activity (in words) ([1]; recombinant β-secretase)	Compound	further results
7.3 nM		7100 nM	>970	22 nM		CCc1cn2c3c(cc(C(=O)N[C@H](CN[C@H](C(=O)NCC(C)C)[C@H](C)O)Cc4ccccc4)cc13)N(C)S(=O)(=O)CC2 [Inhibitor 18]	selectivity against CD (human CD (cathepsin D)): over 970 fold; ratio of cell inhibitory to enzyme inhibitory efficacy ([2]; cellular IC50 / BACE 1 Ki): 3
0.4 nM	improvement in CD selectivity	690 nM	>1700			CCC[C@H](O)[C@H](NC[C@H](Cc1ccccc1)NC(=O)c1cc2c3c(c1)c(CC)cn3CCS(=O)(=O)N2C)C(=O)NCC(C)C [Inhibitor 19]	improvement in the potency ([1]; BACE 1 Ki, inhibitor 19 versus inhibitor 18): around 18 fold
7.2 nM					impressive potency	CCc1cn2c3c(cc(C(=O)N[C@H](CN[C@H](C(=O)NCC(C)C)[C@H](C)O)Cc4ccccc4)cc13)N(C)S(=O)(=O)C1(CC1)C2 [Inhibitor 21]	
		2000 nM	>4200		impressive potency	CCC[C@H](O)[C@H](NC[C@H](Cc1ccccc1)NC(=O)c1cc2c3c(c1)c(CC)cn3CC1(CC1)S(=O)(=O)N2C)C(=O)NCC(C)C [Inhibitor 22]	Ki [1]: 0.47 nM; selectivity against CD (human CD (cathepsin D)): > 4200 fold; IC50 [2]: 14 nM
